# Test results as given in EP4000606A1, “COMPOUNDS FOR CORONAVIRUS INFECTION TREATMENT AND/OR PREVENTION” (priority 2020, dated 2022).
# Read-outs that look alike come from different tables or passages of the source.
# Tested on: SARS-CoV-2
# Experiment: microbe, parasite or virus in culture
# Assay type: cell-based
# [1] = Severe acute respiratory syndrome coronavirus 2, 120 h
# [2] = confluence of SARS-CoV-2 infected VeroE6-EGFP cells after test compound treatment compared to control wells, 5 days
Compound,Maximum confluence reached (%) (5 days),other results
"CCCCOCCOc1ccc(-c2ccc3c(c2)C=C(C(=O)Nc2ccc([S@@+]([O-])Cc4cncn4CCC)cc2)CCCN3CC(C)C)cc1 [compound 65, (-)-(S)-8-[4-(2-Butoxyethoxy)phenyl]-1-isobutyl-N-[4-(1-propyl-1H-imidazol-5-ylmethylsulfinyl)phenyl]-1,2,3,4-tetrahydro-1-benzazocine-5-carboxamide]",70.92,"IC50 (Severe acute respiratory syndrome coronavirus 2, 120 h, half maximal concentration able to recover the cytopathic effect of infection, VeroE6-EGFP cells, 0.01 MOI, 5 days, 8 concentrations, read-out: IC50): 55 µM"
"CC(C)(C)c1cc(C=C(C#N)C#N)cc(C(C)(C)C)c1O [compound 66, (3,5-Di-tert-butyl-4-hydroxybenzylidene)malononitrile]",47.6,–
"O=C(C1CC1)N1CC[C@@H](Cc2n[nH]c(=O)n2-c2ccc(-c3ccc4ccoc4c3)cc2)C1 [compound 67, 4-[4-(1-Benzofuran-6-yl)phenyl]-5-[1-(cyclopropylcarbonyl)pyrrolidin-3(S)-ylmethyl]-3,4-dihydro-2H-1,2,4-triazol-3-one]",31.06,IC50 [1]: 17 µM
"Cn1c(Nc2ccc(C(F)(F)F)cc2)nc2cc(Oc3ccnc(-c4nc(C(F)(F)F)c[nH]4)c3)ccc21 [compound 70, 1-Methyl-N-[4-(trifluoromethyl)phenyl]-5-[2-[4-(trifluoromethyl)-1H-imidazol-2-yl]pyridin-4-yloxy]-1H-benzimidazol-2-amine]",44.1,–
"O=C(Nc1ccc(Cl)c(Cl)c1)Nc1ccc(Cl)c(Cl)c1 [compound 72, 1,3-Bis(3,4-dichlorophenyl)urea]",45.87,–
"O=[N+]([O-])c1ccc(N/N=C/c2sc(N3CCOCC3)nc2-c2ccccc2)c(S(=O)(=O)Nc2ccccc2Cl)c1 [compound 73, N-(2-chlorophenyl)-2-[(2E)-2-[(2-morpholin-4-yl-4-phenyl-1,3-thiazol-5-yl)methylidene]hydrazinyl]-5-nitrobenzenesulfonamide]",53.9,–
"CC(C)(C)C(=O)C(=Cc1cccc([N+](=O)[O-])c1)n1cncn1 [compound 76, 4,4-dimethyl-1-(3-nitrophenyl)-2-(1H-1,2,4-triazol-1-yl)-1-penten-3-one]",–,Maximum confluence reached (%): 50.44%; IC50 [1]: 4.33 µM
"CC(C)COCC(CN(Cc1ccccc1)c1ccccc1)N1CCCC1.Cl.O (stereo not shown) [compound 78, 1-[1-(N-Benzylanilino)-3-isobutoxy-2-propyl]pyrrolidine monohydrochloride monohydrate]",30.41,–
"COc1ccc2cc1Oc1ccc(cc1)C[C@H]1c3cc(c(OC)cc3CCN1C)Oc1c(OC)c(OC)cc3c1[C@H](C2)N(C)CC3 [compound 79, (1beta)-(S,S)-6,6',7,12-Tetramethoxy-2,2'-dimethylberbaman]",99.64,–
"CCN(CC)CCO[C@H]1CC[C@@]2(C)C(=CC[C@@H]3[C@@H]2CC[C@]2(C)C(=O)CC[C@@H]32)C1.Cl [compound 80, 3beta-[2-(Diethylamino)ethoxy]androst-5-en-17-one hydrochloride]",44.66,–
"O=C(c1c2ccccc2cc2ccccc12)N1CCC(N2CCC[C@@H](C(=O)N3CCOCC3)C2)CC1 [compound 81, 1-[1'-(Anthracen-9-ylcarbonyl)-1,4'-bipiperidin-3(R)-yl]-1-(4-morpholinyl)methanone]",–,Maximum confluence reached (%) [2]: 51%
"CCN(CC)CCOc1ccc(C(=C(Cl)c2ccccc2)c2ccccc2)cc1.O=C(O)CC(O)(CC(=O)O)C(=O)O [compound 82, 2-[4-(2-Chloro-1,2-diphenylvinyl)phenoxy]-N,N-diethylethanamine citrate]",54.73,–
"CCN(CC)CCOc1ccc2c(c1)C(=O)c1cc(OCCN(CC)CC)ccc1-2 [compound 84, 2,7-Bis[2-(diethylamino)ethoxy]-9H-fluoren-9-one]",68.89,–
"Cc1cccc(Nc2nc(-c3ccncc3)cs2)c1 [compound 85, N-(3-Methylphenyl)-4-(4-pyridyl)thiazol-2-amine]",47.81,–
"O=S(=O)(NCC1CC1)c1ccc(Nc2nccc(N3CCCc4cc(O)ccc43)n2)cc1 [compound 86, N-(Cyclopropylmethyl)-4-[[4-(3,4-dihydro-6-hydroxy-1(2H)-quinolinyl)-2-pyrimidinyl]amino]benzenesulfo namide]",55.04,–
"CC(C)N1CCN(c2ccc(C(=O)c3c(-c4ccc(O)cc4)sc4cc(O)ccc34)cc2)CC1 [compound 87, 1-[6-Hydroxy-2-(4-hydroxyphenyl)-1-benzothien-3-yl]-1-[4-(4-isopropylpiperazin-1-yl)phenyl]methanone]",41.04,–

Compound,Maximum confluence reached (%) (5 days),other results
"CN(C)CCC=C1c2ccccc2C=Cc2ccccc21.Cl [compound 90, 3-(5H-Dibenzo[a,d]cyclohepten-5-ylidene)-N,N-dimethylpropan-1-amine hydrochloride]",–,"Maximum confluence reached (%): 70,19%; IC50 [1]: 12.1 µM"
"Cc1ccc(NC(=O)Nc2cc(C(F)(F)F)ccc2F)cc1Nc1ccc2c(c1)NC(=O)C2=Cc1ccc[nH]1 [compound 92, 1-[2-Fluoro-5-(trifluoromethyl)phenyl]-3-[4-methyl-3-[2-oxo-3-(1H-pyrrol-2-ylmethylene)-2,3-dihydro-1H-indol-6-ylamino]phenyl]urea]",75.5,IC50 [1]: 5.23 µM
"CN1CCN(CCCN2c3ccccc3Sc3ccc(C(F)(F)F)cc32)CC1.Cl.Cl [compound 94, 10-[3-(4-Methylpiperazin-1-yl)propyl]-2-(trifluoromethyl)-10H-phenothiazine dihydrochloride]",37.97,–
"COc1cc2c(NC3CCN(C(C)C)CC3)nc(N3CCC(F)(F)CC3)nc2cc1OCCCN1CCCC1 [compound 95, 2-(4,4-Difluoropiperidin-1-yl)-6-methoxy-N-[1-(propan-2-yl)piperidin-4-yl]-7-[3-(pyrrolidin-1-yl)propoxy]quinazolin-4-amine]",31.06,–
"CC[C@@]1([C@@H]2O[C@@H]([C@H]3O[C@@](O)(COC(=O)Nc4ccccc4)[C@H](C)C[C@@H]3C)C[C@@H]2C)CC[C@H]([C@]2(C)CC[C@]3(C[C@H](O)[C@@H](C)[C@@H]([C@@H](C)[C@@H](OC)[C@H](C)C(=O)[O-])O3)O2)O1.[Na+] [compound 98, 4(S)-[(2S,5R,7S,8R,9S)-2-[(2S,2'R,3'S,5R,5'R)-2-Ethyl-5'-[6(R)-hydroxy-3(S),5(R)-dimethyl-6-(phenylaminocarbonyloxymethyl)tetrahydropyran-2(S)-yl]-3'-methylperhydro-2,2'-bifuran-5-yl]-9-hydroxy-2,8-dimethyl-1,6-dioxaspiro[4.5]dec-7-yl]-3(R)-methoxy-2(S)-methylpentanoic acid sodium salt]",38.24,IC50 [1]: 3.18 µM
"CC(C)(C)c1cc(C=C(C#N)C#N)cc(Br)c1O [compound 99, 2-(3-Bromo-5-tert-butyl-4-hydroxybenzylidene)propanedini trile 2-(3-Bromo-5-tert-butyl-4-hydroxybenzylidene)malononitrile]",37.27,IC50 [1]: 7.23 µM
"Cl.O=C(c1c2ccccc2cc2ccccc12)N1CCC(N2CCC[C@@H](C(=O)N3CCOCC3)C2)CC1 [compound 101, 1-[1'-(Anthracen-9-ylcarbonyl)-1,4'-bipiperidin-3(R)-yl]-1-(4-morpholinyl)methanone hydrochloride]",50.88,–
"Oc1c(Cl)cc(Cl)cc1Sc1cc(Cl)cc(Cl)c1O [compound 102, 2,2'-Thio-bis(4,6-dichlorophenol), Bis(2-hydroxy-3,5-dichlorophenyl) sulfide]",31.25,–
"CC(C)(C)c1cc(C=C(C#N)C#N)cc(C(C)(C)C)c1O [compound 103, (3,5-Di-tert-butyl-4-hydroxybenzylidene)malononitrile]",51.51,IC50 [1]: 205 µM
"Nc1ccc(C(=O)Nc2cccc(-c3nc(N4CCOCC4)c4oc5ncccc5c4n3)c2)cn1 [compound 104, 6-Amino-N-[3-[4-(4-morpholinyl)pyrido[3',2':4,5]furo [3,2-d]pyrimidin-2-yl]phenyl]pyridine-3-carboxamide]",35.48,–
"O=C(O)c1ccc(N2C(=O)C(=Cc3ccc(-c4ccc([N+](=O)[O-])cc4)o3)C=C2c2ccccc2)cc1 [compound 105, 4-[3-[5-(4-Nitrophenyl)furan-2-ylmethylene]-2-oxo-5-phenyl-2,3-dihydro-1H-pyrrol-1-yl]benzoic acid]",52.15,IC50 [1]: 236 µM
"CC(C)C[C@H](NC(=O)CNC(=O)c1cc(Cl)ccc1Cl)B(O)O [compound 108, 1(R)-[2-(2,5-Dichlorobenzamido)acetamido]-3-methylbutylboronic acid]",30.79,IC50 [1]: 135 µM
"CN1CCN(CC/C=C2/c3ccccc3Sc3ccc(S(=O)(=O)N(C)C)cc32)CC1 [compound 109, (Z)-N,N-Dimethyl-9-[3-(4-methyl-1-piperazinyl)propylidene]thioxant hene-2-sulfonamide]",36.55,–
"(1R,2S,3R)-3-(6-Amino-9H-purin-9-yl)-1,2-cyclopentanediol [compound 75]",–,"Maximum confluence reached (%) [2]: 33.14%; IC50 (half maximal concentration able to recover the cytopathic effect of infection, VeroE6-EGFP cells, 0.01 MOI, 5 days, 8 concentrations, read-out: IC50): 0.36 µM"
"(4R,4aS)-18-Ethenyl-4,4a-dihydro-3,4-bis(methoxycarbonyl)-4a,8,14,19-tetramethyl-24H,26H-benzo[b]porphine-9,13-dipropanoic acid monomethyl ester [compound 39]",89.5,IC50 (read-out: IC50): 30 µM
